In EPA's ToxRefDB 2:

Tests used:
primate = conditions: Subchronic oral toxicity in nonrodent, Gavage/Intubation, dose end: 91 day, group: systemic, systemic / in life observation / clinical signs / ataxia + systemic / in life observation / clinical signs / convulsions + systemic / in …
dog = conditions: Sub-acute repeat dose toxicity, beagle, Oral, Gavage/Intubation, dose end: 17 day, group: systemic
mouse [1] = conditions: Carcinogenicity, cd1, Oral, Water, dose end: 24 month, group: systemic
rat [2] = conditions: Subchronic dermal toxicity, sprague dawley, Topical, dose end: 13 week, group: systemic, systemic / in life observation / clinical signs / desquamation + systemic / in life observation / clinical signs / erythema + systemic / in …
rabbit [3] = conditions: Prenatal developmental toxicity study, new zealand white, Oral, Gavage/Intubation, dose end: 19 GD
rat [4] = conditions: Combined chronic toxicity/carcinogenicity, sprague dawley, Oral, Water, dose end: 24 month, group: systemic
rat [5] = conditions: Prenatal developmental toxicity study, sprague dawley, Oral, Gavage/Intubation, dose end: 17 GD, group: maternal
rat [6] = conditions: Sub-acute repeat dose toxicity; sprague dawley; Oral; Gavage/Intubation; dose end: 4 week; group: systemic; systemic / clinical chemistry / alanine aminotransferase (alt/sgpt) / alanine aminotransferase (alt/sgpt) + systemic / clinical chemistry / …
mouse [7] = conditions: Carcinogenicity; b6c3f1; Oral; Feed; dose end: 78 week; group: systemic; systemic / in life observation / body weight / body weight
rat [8] = conditions: Prenatal developmental toxicity study, sprague dawley, Oral, Gavage/Intubation, dose end: 17 GD
rat [9] = conditions: Carcinogenicity; fischer; Oral; Feed; dose end: 78 week; group: systemic; systemic / in life observation / body weight / body weight + systemic / pathology microscopic / bone marrow / atrophy
rat [10] = conditions: Subchronic oral toxicity in rodents, sprague dawley, Water, dose end: 13 week, group: systemic
mouse [11] = conditions: Carcinogenicity, b6c3f1, Oral, Water, dose end: 104 week, group: systemic
rabbit [12] = conditions: Prenatal developmental toxicity study, dutch, Oral, Gavage/Intubation, dose end: 18 GD
mouse [13] = conditions: Subchronic oral toxicity in rodents, b6c3f1, Water, dose end: 13 week, group: systemic
rat [14] = conditions: Combined chronic toxicity/carcinogenicity; sprague dawley; Oral; Water; dose end: 24 month; group: systemic; systemic / in life observation / mortality / mortality + systemic / pathology gross / kidney / calculus + systemic / pathology gross / …
rat [15] = conditions: Prenatal developmental toxicity study, sprague dawley, Oral, Gavage/Intubation, dose end: 15 GD
rabbit [16] = conditions: Prenatal developmental toxicity study, chinchilla, Oral, Gavage/Intubation, dose end: 18 GD
rat [17] = conditions: Subchronic oral toxicity in rodents, other, Water, dose end: 90 day, group: systemic
[18] = systemic / clinical chemistry / alanine aminotransferase (alt/sgpt) / alanine aminotransferase (alt/sgpt) + systemic / clinical chemistry / …
[19] = systemic / hematology / erythrocyte (rbc) count differential / erythrocyte (rbc) + systemic / hematology / hematocrit (hct) / hematocrit (…
[20] = group: developmental, developmental / developmental malformation / general / [other]
[21] = group: maternal, systemic / in life observation / body weight / body weight + systemic / in life observation / body weight / body weight gain + systemic / in…
[22] = systemic / pathology microscopic / stomach / hyperkeratosis + systemic / pathology microscopic / stomach / hyperplasia + systemic / in life …
[23] = reproductive / reproductive performance / postimplantation loss / postimplantation loss + reproductive / reproductive performance / …
[24] = group: developmental, developmental / developmental malformation / bone / fused + developmental / developmental malformation / brain / dilated cerebral ventricle
[25] = group: developmental, developmental / developmental malformation / bone / fused + developmental / developmental malformation / brain / dilated cerebral ventricle…
[26] = group: maternal, reproductive / reproductive performance / resorptions / resorptions + reproductive / offspring survival early / dead fetuses / dead fetuses…
[27] = systemic / clinical chemistry / protein / protein
[28] = systemic / pathology gross / urinary bladder / calculus + systemic / pathology microscopic / urinary bladder / hyperplasia
[29] = systemic / in life observation / clinical signs / distended abdomens + systemic / urinalysis / sodium / sodium
[30] = group: developmental, developmental / developmental malformation / general / crown-rump length + systemic / in life observation / body weight / fetal weight
[31] = group: maternal, systemic / in life observation / body weight / body weight
[32] = systemic / pathology gross / urinary bladder / calculus
[33] = systemic / pathology gross / urinary bladder / calculus + systemic / pathology microscopic / urinary bladder / congestion
[34] = group: developmental, developmental / developmental malformation / bone / incomplete ossification
[35] = group: developmental, developmental / developmental malformation / bone / unossified + systemic / in life observation / body weight / fetal weight
[36] = group: maternal, systemic / in life observation / body weight / body weight gain + systemic / in life observation / food consumption / food consumption
[37] = group: maternal, systemic / in life observation / body weight / body weight gain + systemic / in life observation / food consumption / food consumption + …
[38] = systemic / in life observation / body weight / body weight + systemic / in life observation / clinical signs / fur (altered appearance) + …

Q: Which LEL (primate) does the source give for `Cl.NCC1(Cc2noc(=O)[nH]2)CCCCC1` here?
A: 250 mg/kg/day

Q: And the LOAEL (primate)?
A: > 1500 mg/kg/day

Q: What about the NEL (primate) of the same molecule?
A: 50 mg/kg/day

Q: What about the NOAEL (primate) of the same molecule?
A: ≥ 1500 mg/kg/day

Q: For `CC(C)(O)c1cnn2c(-c3ccc(F)c(-c4c(F)cccc4C#N)c3)cnc2n1`, which LOAEL (dog; [18]) is on record?
A: > 15 mg/kg/day

Q: What about the NEL (dog; [18]) of the same molecule?
A: 0.5 mg/kg/day

Q: And the NOAEL (dog; [18])?
A: ≥ 15 mg/kg/day

Q: And the LEL (dog; systemic / clinical chemistry / albumin / albumin)?
A: 2.5 mg/kg/day

Q: Which LEL (mouse [1]; [19]) does the source give for `CN(C)N` [1,1-Dimethylhydrazine] here?
A: 1.41 mg/kg/day

Q: What about the NEL (mouse [1]; [19]) of the same molecule?
A: 0.269 mg/kg/day

Q: And the LOAEL (mouse [1]; systemic / pathology microscopic / liver / hyperplasia + systemic / pathology microscopic / liver / pigmentation)?
A: 1.91 mg/kg/day

Q: What about the NOAEL (mouse [1]; systemic / pathology microscopic / liver / hyperplasia + systemic / pathology microscopic / liver / pigmentation + systemic / in life …) of the same molecule?
A: 0.97 mg/kg/day

Q: With `Cn1sc(Cl)cc1=O` [5-Chloro-2-methyl-3(2H)-isothiazolone] as the molecule, how does the LEL (rat [2]) read?
A: 0.75 mg/kg/day

Q: What about the LOAEL (rat [2]) of the same molecule?
A: 0.75 mg/kg/day

Q: What about the NEL (rat [2]) of the same molecule?
A: < 0.75 mg/kg/day

Q: What about the NOAEL (rat [2]) of the same molecule?
A: < 0.75 mg/kg/day

Q: And the LEL (rabbit [3]; [20])?
A: 8 mg/kg/day

Q: What about the LOAEL (rabbit [3]; [20]) of the same molecule?
A: 8 mg/kg/day

Q: What about the NEL (rabbit [3]; [20]) of the same molecule?
A: 2 mg/kg/day

Q: What about the NOAEL (rabbit [3]; [20]) of the same molecule?
A: 2 mg/kg/day

Q: What about the LEL (rabbit [3]; [21]) of the same molecule?
A: 8 mg/kg/day

Q: And the LOAEL (rabbit [3]; [21])?
A: 8 mg/kg/day

Q: And the NEL (rabbit [3]; [21])?
A: 2 mg/kg/day

Q: And the NOAEL (rabbit [3]; [21])?
A: 2 mg/kg/day

Q: And the LOAEL (rat [4]; systemic / pathology microscopic / stomach / hyperkeratosis + systemic / pathology microscopic / stomach / hyperplasia)?
A: 6.6 mg/kg/day

Q: What about the NEL (rat [4]; [22]) of the same molecule?
A: 2 mg/kg/day

Q: And the NOAEL (rat [4]; [22])?
A: 2 mg/kg/day

Q: And the LEL (rat [4]; systemic / pathology microscopic / stomach / hyperkeratosis + systemic / pathology microscopic / stomach / hyperplasia + systemic / …)?
A: 6.6 mg/kg/day

Q: Which LOAEL (rat [5]; [23]) does the source give for `O=C(O)c1ccccc1-n1cc(C(=O)O)c(=O)c2cc(Nc3c(F)cc(F)cc3Cl)c(Cl)cc21` [AVE9423] here?
A: > 1000 mg/kg/day

Q: What about the NEL (rat [5]; [23]) of the same molecule?
A: 40 mg/kg/day

Q: What about the NOAEL (rat [5]; [23]) of the same molecule?
A: ≥ 1000 mg/kg/day

Q: And the LEL (rat [5]; reproductive / reproductive performance / postimplantation loss / postimplantation loss + systemic / in life observation / body weight / …)?
A: 200 mg/kg/day

Q: And the LEL (rat [6])?
A: 200 mg/kg/day

Q: What about the LOAEL (rat [6]) of the same molecule?
A: 200 mg/kg/day

Q: What about the NEL (rat [6]) of the same molecule?
A: 20 mg/kg/day

Q: And the NOAEL (rat [6])?
A: 20 mg/kg/day

Q: `CCc1nc(N)nc(N)c1-c1ccc(Cl)cc1` [Pyrimethamine] was tested. Which LEL (mouse [7]) did it give?
A: 75 mg/kg/day

Q: And the LOAEL (mouse [7])?
A: > 150 mg/kg/day

Q: And the NEL (mouse [7])?
A: < 75 mg/kg/day

Q: And the NOAEL (mouse [7])?
A: ≥ 150 mg/kg/day

Q: What about the LEL (rat [8]; [24]) of the same molecule?
A: 1.2 mg/kg/day

Q: And the NEL (rat [8]; [24])?
A: < 1.2 mg/kg/day

Q: And the LOAEL (rat [8]; [25])?
A: > 2.7 mg/kg/day

Q: And the NOAEL (rat [8]; [25])?
A: ≥ 2.7 mg/kg/day

Q: What about the NEL (rat [8]; group: maternal, reproductive / reproductive performance / resorptions / resorptions) of the same molecule?
A: 1.2 mg/kg/day

Q: And the LEL (rat [8]; [26])?
A: 2.7 mg/kg/day

Q: And the LOAEL (rat [8]; [26])?
A: > 2.7 mg/kg/day

Q: What about the NOAEL (rat [8]; [26]) of the same molecule?
A: ≥ 2.7 mg/kg/day

Q: And the LEL (rat [9])?
A: 10 mg/kg/day

Q: And the LOAEL (rat [9])?
A: > 20 mg/kg/day

Q: What about the NEL (rat [9]) of the same molecule?
A: < 10 mg/kg/day

Q: And the NOAEL (rat [9])?
A: ≥ 20 mg/kg/day

Q: What does the source list for `O=c1[n-]c(=O)[nH]c(=O)[nH]1.[Na+]` [Sodium cyanurate]?
A: LEL (rat [10]; [27]): 132 mg/kg/day; NEL (rat [10]; [27]): < 132 mg/kg/day; LOAEL (rat [10]; [28]): > 672 mg/kg/day; NOAEL (rat [10]; [28]): ≥ 672 mg/kg/day; LEL (mouse [11]; systemic / in life observation / body weight / body weight gain): 100 mg/kg/day; NEL (mouse [11]; systemic / in life observation / body weight / body weight gain + systemic / in life observation / clinical signs / distended abdomens + …): 25.9 mg/kg/day; LOAEL (mouse [11]; [29]): > 1520 mg/kg/day; NOAEL (mouse [11]; [29]): ≥ 1520 mg/kg/day; LEL (rabbit [12]; [30]): 500 mg/kg/day; LOAEL (rabbit [12]; [30]): 500 mg/kg/day; NEL (rabbit [12]; [30]): 200 mg/kg/day; NOAEL (rabbit [12]; [30]): 200 mg/kg/day; LEL (rabbit [12]; [31]): 200 mg/kg/day; LOAEL (rabbit [12]; [31]): 200 mg/kg/day; NEL (rabbit [12]; [31]): 50 mg/kg/day; NOAEL (rabbit [12]; [31]): 50 mg/kg/day; LEL (mouse [13]; [32]): 252 mg/kg/day; NEL (mouse [13]; [32]): < 252 mg/kg/day; LOAEL (mouse [13]; [33]): 1990 mg/kg/day; NOAEL (mouse [13]; [33]): 522 mg/kg/day; LEL (rat [14]): 371 mg/kg/day; LOAEL (rat [14]): 371 mg/kg/day; NEL (rat [14]): 154 mg/kg/day; NOAEL (rat [14]): 154 mg/kg/day

Q: Which results are given for `CCCCCCCCCCCCCC[P+](CCCC)(CCCC)CCCC.[Cl-]` [Tributyltetradecylphosphonium chloride]?
A: LEL (rat [15]; [34]): 30 mg/kg/day; LOAEL (rat [15]; [34]): 30 mg/kg/day; NEL (rat [15]; [34]): 10 mg/kg/day; NOAEL (rat [15]; [34]): 10 mg/kg/day; LOAEL (rat [15]; [21]): 120 mg/kg/day; NEL (rat [15]; [21]): 20 mg/kg/day; NOAEL (rat [15]; [21]): 60 mg/kg/day; LEL (rat [15]; group: maternal, systemic / in life observation / food consumption / food consumption + systemic / in life observation / clinical signs / respiration (…): 60 mg/kg/day; LEL (rabbit [16]; [35]): 11.2 mg/kg/day; LOAEL (rabbit [16]; [35]): 11.2 mg/kg/day; NEL (rabbit [16]; [35]): 3.75 mg/kg/day; NOAEL (rabbit [16]; [35]): 3.75 mg/kg/day; LEL (rabbit [16]; [36]): 11.2 mg/kg/day; LOAEL (rabbit [16]; [36]): 11.2 mg/kg/day; NEL (rabbit [16]; [37]): 3.75 mg/kg/day; NOAEL (rabbit [16]; [37]): 3.75 mg/kg/day; LOAEL (rat [17]; [38]): 27.2 mg/kg/day; NEL (rat [17]; [38]): 2.56 mg/kg/day; NOAEL (rat [17]; [38]): 8.66 mg/kg/day; LEL (rat [17]; systemic / organ weight / kidney / relative to body weight): 8.66 mg/kg/day
